Values after ≈ are worked out from the molar mass of the structure shown. Values joined by “and” are separate entries in the source; they are usually repeats but may differ in a detail not shown here. Equal values may be shown once.

These results are taken from PMC7561186, “Rational design of balanced dual-targeting antibiotics with limited resistance” (PLoS Biology, 2020).

For data set [1], the system named is S. aureus clinical isolates. Kind of data set: microbe, parasite or virus in culture. The note with it: Staphylococcus aureus. The format is cell-based.
In a further data set the test system is S. aureus. Kind of data set: pH-dependent MIC determination. It is filed as cell-based. To be noted: for MIC: Staphylococcus aureus. The protocol:
MICs were determined using a standard serial broth microdilution technique according to the CLSI guidelines. Briefly, bacterial strains were inoculated onto MHBII agar plates and were grown overnight at 37 °C. Next, 3 individual colonies from each strain were inoculated into 1 mL MHBII medium and propagated at 37 °C, 250 rpm overnight. In the cases of Enterococcus and Streptococcus sp., cells were plated to BHI agar plates, and BHI broth was used to determine MICs. […] Following dilutions, each well was seeded with 5×10^4 bacterial cells. All measurements were performed in 3 parallel replicates and to avoid possible edge effects in microwell plates, side rows (A and H) were filled with sterile medium. Following inoculations, plates were covered with lids and wrapped in polyethylene plastic bags to minimize evaporation but allow for O2 transfer. Plates were incubated at 37 °C under continuous shaking at 150 rpm for 18 hours. After incubation, OD600 of each well was measured using a BioTek Synergy 2 microplate reader.

Data set [2] deals with S. aureus ATCC 700699 VISA. Briefly: Time-dependent killing. The format is cell-based. The note with it: for Time-kill bacterial count: 10xMIC; for Colony numbers: time-kill raw counts, Samples 1-3. The protocol: Time-dependent killing experiments were performed as previously. S. aureus ATCC 700699 VISA cells were inoculated to MHBII agar plates and grown overnight at 37 °C. Next, 3 independent stationer-phase starter cultures were grown at 37 °C, 250 rpm overnight, in 3 × 1 mL MHBII broth. Next, 100-fold diluted cultures were prepared from each in 20 mL fresh MHBII medium and grown at 37 °C, 250 rpm until early exponential phase (OD600 = 0.3–0.4; i.e., 5 × 10^5 cells/mL). […] Cells were treated with antibiotics in Erlenmeyer flasks at 37 °C, 150 rpm for 48 hours. […] Next, 50 μL from each dilution were plated on MHBII agar plates, and plates were incubated overnight at 37 °C to calculate CFU per mL.

Data set [3] deals with S. aureus USA300 (MRSA) BAA1556, S. aureus (VRSA) ECL2963646, S. aureus Mu50 (VISA) ATCC 700699. Kind of data set: S. aureus dermal infection model. It is filed as in vivo, ICR mice. The note with it: 2% treatment, individual animals. The protocol:
The testing strains, S. aureus USA300 (MRSA) BAA1556, S. aureus (VRSA) ECL2963646, and S. aureus Mu50 (VISA) ATCC 700699 were obtained from frozen stocks and thawed at room temperature. Next, an aliquot of 0.2 mL from each stock was transferred to 20 mL BHI broth and incubated at 37 °C with shaking (120 rpm) for 8 hours. Cells in 20 mL culture were pelleted by centrifugation, 3,500g for 15 minutes, and then resuspended in 10 mL cold PBS, then cells were diluted in PBS to obtain the inoculum sizes of 1×10^5 or 1× 10^6 CFU/mL, based on the testing strain’s virulence. In all cases, the actual colony counts were determined by plating dilutions in at least 3 replicates onto MHBII agar plates followed by 24 hours’ incubation and colony counting.
For dermal infections, groups of 5 female ICR mice weighing 24 ± 4 g, provided by BioLasco Taiwan (under a Charles River Laboratories Technology Licensee), were used. Animals were acclimated for 3 days prior to use and were confirmed to be in good health. Prior to infection, animals were anesthetized with etomidate-lipuro emulsion (20 mg /10 mL) at 20 mg/kg by IV injection, and then the fur on the back was removed by an electric shaver, and the epidermal layer was disrupted with an abrasive paper according to the protocol developed by Kugelberg and colleagues. Mice were inoculated topically on the wound area with testing strain suspension, 5 μL/mouse. The target inoculation densities were 1×10^5 or 1× 10^6 CFU/mL, based on the corresponding strain’s virulence. Following infection, animals were housed separately. […] Test articles were administered topically (20 μL/mouse) twice daily. One no-treatment group was euthanized at 1 hour after infection for initial bacterial counts, and the other treatment groups were dosed twice daily with the test compounds and sacrificed either at 25 hours or at 73 hours postinfection. Animals were euthanized with CO2 asphyxiation and the infected skin, a 2 cm^2 area, was excised. The skin samples of the wound infection (around 2 cm^2 areas) were then homogenized in 1 mL PBS (pH 7.4) with a polytron homogenizer. A 0.1 mL aliquot of each homogenate was used for serial 10-fold dilutions and plated onto MHBII agar plates for bacterial enumeration. Statistical significance (P <0.05) was assessed with 1-way ANOVA followed by Dunnett’s method. A significant (P <0.05) decrease in the bacterial counts of the treated animals compared with the vehicle control group was considered significant antimicrobial activity.

A further data set deals with human red blood cells. Briefly: Haemolysis analysis. To be noted: human red blood cells, 50 µg/mL, positive control.

Experimental for human red blood cells: Next, 600 μl of this EDTA-treated blood was washed in TBS buffer (10 mM TRIS, 150 mM NaCl [pH 7.2]) and centrifuged at 1,500 g for 1 minute until the supernatant became colorless. The aliquot of the final pellet (200 μL) was diluted to 5 mL with TBS buffer. […] Next, 100 μL of red blood cell suspension was pipetted into sterile Eppendorf tubes together with 100 μL of 2-fold serial dilution of the compounds (final concentration ranged between 100 μg/mL–0.1 μg/mL in a final volume of 200 μL). The plate was incubated for one hour at 37 °C followed by centrifugation at 1,500 g for 1 minute to sediment all red blood cells. Next, all supernatants were subjected to LDH and Haemolysis-Icterus-Lipaemia (HIL) index determination on a Roche Modular P800 analyzer according to the manufacturer’s instructions. After completion of this step the rest of the supernatants were transferred to sterile 96-well plates for the measurement of their optical density at 560-nm wavelength (in a Multiskan FC microplate reader, Thermo Scientific). Melittin (Bachem) at a concentration of 50 μg/mL, and TBS and 10% DMSO/TBS were served as positive (100% hemolysis) and negative (no hemolysis) controls, respectively.

With `CN[C@H](CC(C)C)C(=O)N[C@H]1C(=O)N[C@@H](CC(N)=O)C(=O)N[C@H]2C(=O)N[C@H]3C(=O)N[C@H](C(=O)N[C@H](C(=O)O)c4cc(O)cc(O)c4-c4cc3ccc4O)[C@H](O)c3ccc(c(Cl)c3)Oc3cc2cc(c3O[C@@H]2O[C@H](CO)[C@@H](O)[C@H](O)[C@H]2O[C@H]2C[C@](C)(N)[C@H](O)[C@H](C)O2)Oc2ccc(cc2Cl)[C@H]1O` [Vancomycin], the MIC in data set [1] (ATCC 29213 / MSSA) was found to be 1 µg/mL (≈ 0.69 µM); in data set [1] (MRSA) it was 1 µg/mL (≈ 0.69 µM); in data set [1] (MRSA / NRS 3 / VISA) it was 8 µg/mL (≈ 5.52 µM); in data set [1] (MRSA / NRS 4 / VISA) it was 4 µg/mL (≈ 2.76 µM); in data set [1] (MRSA / NRS 18 / VISA) it was 8 µg/mL (≈ 5.52 µM); in data set [1] (MRSA / NRS 19 / VISA), 4 µg/mL (≈ 2.76 µM). Also, the MIC came to 4 µg/mL (≈ 2.76 µM) in data set [1] (MRSA / NRS 21 / VISA); 8 µg/mL (≈ 5.52 µM) in data set [1] (MRSA / NRS 22 / USA600 / VISA); 4 µg/mL (≈ 2.76 µM) in data set [1] (MRSA / NRS 23 / VISA); 8 µg/mL (≈ 5.52 µM) in data set [1] (MRSA / NRS 24 / VISA); 2 µg/mL (≈ 1.38 µM) in data set [1] (MRSA / NRS 26); 4 µg/mL (≈ 2.76 µM) in data set [1] (MRSA / NRS 27 / VISA). Besides, the MIC is 4 µg/mL (≈ 2.76 µM) in data set [1] (MRSA / NRS 29 / VISA); 4 µg/mL (≈ 2.76 µM) in data set [1] (MRSA / NRS 37 / VISA); 2 µg/mL (≈ 1.38 µM) in data set [1] (MRSA / NRS 54); 4 µg/mL (≈ 2.76 µM) in data set [1] (MRSA / NRS 56 / VISA); greater than 64 µg/mL in data set [1] (MRSA / USA100 / VRSA); greater than 64 µg/mL in data set [1] (MRSA / USA800 / VRSA). Moreover, the MIC in data set [1] (MSSA) was determined as 1 µg/mL (≈ 0.69 µM); in data set [1] (MSSA / NRS 12 / VISA), 4 µg/mL (≈ 2.76 µM); in data set [1] (MSSA / NRS 13 / VISA), 4 µg/mL (≈ 2.76 µM); in data set [1] (MSSA / NRS 14 / VISA) it was 4 µg/mL (≈ 2.76 µM); in data set [1] (MSSA / NRS 17 / VISA) it was 8 µg/mL (≈ 5.52 µM); in data set [1] (MSSA / NRS 28 / VISA), 4 µg/mL (≈ 2.76 µM). Besides, the MIC is 2 µg/mL (≈ 1.38 µM) in data set [1] (MSSA / NRS 52); greater than 64 µg/mL in data set [1] (MSSA / USA100 / VRSA); 2 µg/mL with S. aureus (S. aureus ATCC 43300 (MRSA), pH 5.5); 1 µg/mL in the data set on S. aureus (S. aureus ATCC 43300 (MRSA), pH 7.3); 8 µg/mL with S. aureus (S. aureus ATCC 700699 (VISA), pH 5.5); 8 µg/mL with S. aureus (S. aureus ATCC 700699 (VISA), pH 7.3). For the same molecule, the “potency on shift from pH 7.3 to 5.5” value in the data set on S. aureus (S. aureus, in words) was “unaffected”. Besides, the Time-kill bacterial count in data set [2] (time 0 hour) was determined as 2.80E+05; in data set [2] (time 3 hour), 8.40E+04; in data set [2] (time 6 hour) it was 3.30E+04; in data set [2] (time 12 hour), 1.30E+03; in data set [2] (time 18 hour), 3.80E+03; in data set [2] (time 24 hour), 1.60E+02. For the same molecule, the Time-kill bacterial count in data set [2] (time 48 hour) was 5.30E+01. The Colony numbers in data set [2] (time 0 h, Dilution 100) is 145 and 132 and 137; in data set [2] (time 3 h, Dilution 100), 48 and 36 and 42; in data set [2] (time 6 h, Dilution 100), 20 and 13 and 16; in data set [2] (time 12 h, Dilution 10) it was 8 and 7 and 4; in data set [2] (time 18 h, Dilution 1) it was 231 and 176 and 163; in data set [2] (time 24 h, Dilution 0.5), 17 and 12 and 18.
As to `CC(=O)O[C@H]1C[C@@]2(C)[C@@H](C[C@@H](O)[C@H]3[C@@]4(C)CC[C@@H](O)[C@@H](C)[C@@H]4CC[C@@]32C)/C1=C(\CCC=C(C)C)C(=O)O` [fusidic acid], the Time-kill bacterial count is 2.80E+05 in data set [2] (time 0 hour); 7.80E+04 in data set [2] (time 3 hour); 5.60E+04 in data set [2] (time 6 hour); 1.40E+04 in data set [2] (time 12 hour); 3.40E+03 in data set [2] (time 18 hour); 1.40E+03 in data set [2] (time 24 hour). In data set [2] (time 48 hour), this molecule showed a Time-kill bacterial count of 1.70E+04. The Colony numbers in data set [2] (time 0 h, Dilution 100) was 145 and 132 and 137; in data set [2] (time 3 h, Dilution 100), 47 and 39 and 31; in data set [2] (time 6 h, Dilution 100), 31 and 21 and 32; in data set [2] (time 12 h, Dilution 10), 81 and 58 and 73; in data set [2] (time 18 h, Dilution 1), 223 and 160 and 130; in data set [2] (time 24 h, Dilution 0.5), 163 and 86 and 158. For the same molecule, in data set [2] (within 48 hours, 10× MIC, in words), the “regrowth of S. aureus populations” value is recorded as “regrowth was observable”. Also, the “Log CFU/Skin” value in data set [3] (Staphylococcus aureus USA300 (MRSA)) is 4.49 Log CFU/Skin and 5.07 Log CFU/Skin and 4.98 Log CFU/Skin and 4.68 Log CFU/Skin and 3.36 Log CFU/Skin.
For the molecule `C/C(=C\C(=O)OCCCCCCCCC(=O)O)C[C@@H]1OC[C@H](C[C@@H]2O[C@H]2[C@@H](C)[C@H](C)O)[C@@H](O)[C@H]1O` [mupirocin, reference compound], the “Log CFU/Skin” value in data set [3] (Staphylococcus aureus ECL 2963646 (VRSA)) is 5.07 Log CFU/Skin and 5.72 Log CFU/Skin and 5.58 Log CFU/Skin and 5.64 Log CFU/Skin and 4.16 Log CFU/Skin; in data set [3] (Staphylococcus aureus Mu50 ATCC 700699 (VISA)) it was 3.89 Log CFU/Skin and 4.45 Log CFU/Skin and 5.25 Log CFU/Skin and 3.85 Log CFU/Skin and 4.43 Log CFU/Skin.
Take Melittin [reference compound]: in the data set with human red blood cells, the “Hemolytic Index” value is given as 248 and the LDH activity worked out at 525 Unit/mL.
